These compounds were tested on AsPC-1 cells (assay: Cell Proliferation Assay, AsPC-1 (CellTiter-Glo 2.0 viability)). Conditions: AsPC-1 pancreatic cancer (KRAS G12D mutation); 72 hours.
Format: cell-based
Method: Test Example 3: Cell Proliferation Assay
Cell viability testing of test compounds in AsPC-1 pancreatic cancer (KRAS G12D mutation) or SW480 colon cancer (KRAS G12V mutation) cells for 72 hours
The reference compound Staurosporine was purchased from Sigma-Aldrich (Saint Louis, MI), and CellTiter-Glo® 2.0 Luminescent cell viability assay reagent (cat #G9243) was purchased from Promega (Madison, WI). AsPC-1 and SW480 cell lines were purchased from American Type Culture Collection (Manassas, VA). AsPC-1 cells were cultured with RPMI-1640 (ATCC, cat #30-2001) and SW480 cells were cultured with DMEM (ATCC cat #30-2002).
A medium supplemented with 10% FBS (Sigma-Aldrich, cat #F2442) and 100 µg/mL of penicillin-streptomycin (Sigma-Aldrich, cat #P4333) was used. Cells were cultured at 37 °C in a humidified atmosphere of 5% CO2 and 95% air.
• 1. The test compound and reference compound, Staurosporine were dissolved in DMSO solution to prepare 20 mM (test compound) and 10 mM (control compound, Staurosporine) in the Source Plate and diluted with DMSO to 3-fold and 10 doses. • 2. From the Source Plate, 10 volumes of 125 nL test compound or 25 nL reference compound were dispensed into wells of a 384-well culture plate (VWR, cat #82050-076) using Echo 655. • 3. 25 μL of culture medium including 2000 AsPC-1 or SW480 cells was dispensed into each 384-well cell culture plate. • 4. Cells were cultured with the compound for 72 hours at 37 °C and 5% CO2 conditions. • 5. 25 μL of CellTiter-Glo 2.0 reagent was added to each well of the plate. • 6. The contents were mixed for 2 minutes on an orbital shaker, and the luminescence signal was stabilized at room temperature for 15 minutes. • 7. Luminescence signals were measured with an Envision 2104 Multilabel Reader (PerkinElmer, Santa Clara, CA), and the number of surviving cells was determined through quantification of ATP present in each culture. • 8. IC50 values were calculated based on the Sigmoidal dose-response equation in the GraphPad Prism 4 program.

Row | SMILES | IC50
1 | C#Cc1c(F)ccc2cc(O)cc(-c3nc4c5c(nc(OC[C@@]67CCCN6C[C@H](F)C7)nc5c3F)N([C@@H](C)c3cccnc3N)CCO4)c12 [Example 13b, 4-(10-((S)-1-(2-aminopyridin-3-yl)ethyl)-4-fluoro-2-(((2R,7aS)-2-fluorotetrahydro-1H-pyrrolizin-7a(5H)-yl)methoxy)-9,10-dihydro-8H-7-oxa-1,3,6,10-tetraazacyclohepta[de]naphthalen-5-yl)-5-ethynyl-6-fluoronaphthalen-2-ol] | > 10 µM

Same assay, conditions: Homo sapiens, ASPC1, 72 h, AsPC-1 pancreatic cancer (KRAS G12D mutation)

Row | SMILES | IC50
2 | C#Cc1c(F)ccc2cc(O)cc(-c3nc4c5c(nc(OC[C@@H]6CCN6CC(F)F)nc5c3F)N(C(C)c3cccnc3N)C[C@H](C)O4)c12 (stereo partly drawn) [Example 8, 4-((8S)-10-(1-(2-aminopyridin-3-yl)ethyl)-2-(((S)-1-(2,2-difluoroethyl)azetidin-2-yl)methoxy)-4-fluoro-8-methyl-9,10-dihydro-8H-7-oxa-1,3,6,10-tetraazacyclohepta[de]naphthalen-5-yl)-5-ethynyl-6-fluoronaphthalen-2-ol] | > 10 µM
3 | C[C@H]1CN([C@@H](C)c2cccnc2N)c2nc(OC[C@@]34CCCN3C[C@H](F)C4)nc3c(F)c(-c4cc(O)cc5ccc(F)c(F)c45)nc(c23)O1 [Example 10b, 4-((S)-10-((S)-1-(2-aminopyridin-3-yl)ethyl)-4-fluoro-2-(((2R,7aS)-2-fluorotetrahydro-1H-pyrrolizin-7a(5H)-yl)methoxy)-8-methyl-9,10-dihydro-8H-7-oxa-1,3,6,10-tetraazacyclohepta[de]naphthalen-5-yl)-5,6-difluoronaphthalen-2-ol] | > 10 µM
4 | CC(c1cccnc1N)N1C[C@H](C)Oc2nc(-c3cc(O)cc(Cl)c3C3CC3)c(F)c3nc(OC[C@@]45CCCN4C[C@H](F)C5)nc1c23 (stereo partly drawn) [Example 11, 3-((8S)-10-(1-(2-aminopyridin-3-yl)ethyl)-4-fluoro-2-(((2R,7aS)-2-fluorotetrahydro-1H-pyrrolizin-7a(5H)-yl)methoxy)-8-methyl-9,10-dihydro-8H-7-oxa-1,3,6,10-tetraazacyclohepta[de]naphthalen-5-yl)-5-chloro-4-cyclopropylphenol] | > 10 µM
5 | CCc1c(F)ccc2cc(O)cc(-c3nc4c5c(nc(OC[C@@]67CCCN6C[C@H](F)C7)nc5c3F)N(C(C)c3ccccc3N)CCO4)c12 (stereo partly drawn) [Example 21, 4-(10-(1-(2-aminophenyl)ethyl)-4-fluoro-2-(((2R,7aS)-2-fluorotetrahydro-1H-pyrrolizin-7a(5H)-yl)methoxy)-9,10-dihydro-8H-7-oxa-1,3,6,10-tetraazacyclohepta[de]naphthalen-5-yl)-5-ethyl-6-fluoronaphthalen-2-ol] | > 10 µM
6 | CCc1c(F)ccc2cc(O)cc(-c3nc4c5c(nc(OC[C@@H]6CCCN6CC(F)F)nc5c3F)N(C(C)c3cccnc3N)CCO4)c12 (stereo partly drawn) [Example 27, 4-(10-(1-(2-aminopyridin-3-yl)ethyl)-2-(((S)-1-(2,2-difluoroethyl)pyrrolidin-2-yl)methoxy)-4-fluoro-9,10-dihydro-8H-7-oxa-1,3,6,10-tetraazacyclohepta[de]naphthalen-5-yl)-5-ethyl-6-fluoronaphthalen-2-ol] | > 10 µM
7 | CCc1c(F)ccc2cc(O)cc(-c3nc4c5c(nc(OC[C@@]67CCCN6C[C@H](F)C7)nc5c3F)N(C)CCO4)c12 [Example 28, 5-ethyl-6-fluoro-4-(4-fluoro-2-(((2R,7aS)-2-fluorotetrahydro-1H-pyrrolizin-7a(5H)-yl)methoxy)-10-methyl-9,10-dihydro-8H-7-oxa-1,3,6,10-tetraazacyclohepta[de]naphthalen-5-yl)naphthalen-2-ol] | > 10 µM

Second part, the compound after the results:

Row | IC50 | SMILES
8 | 1 to 10 µM | C#Cc1c(F)ccc2cc(O)cc(-c3nc4c5c(nc(OC[C@@]67CCCN6C[C@H](F)C7)nc5c3F)N(C(C)c3cccnc3N)C[C@H](C)O4)c12 (mixture of isomers) [Example 6, 4-((8S)-10-(1-(2-aminopyridin-3-yl)ethyl)-4-fluoro-2-(((2R,7aS)-2-fluorotetrahydro-1H-pyrrolizin-7a(5H)-yl)methoxy)-8-methyl-9,10-dihydro-8H-7-oxa-1,3,6,10-tetraazacyclohepta[de]naphthalen-5-yl)-5-ethynyl-6-fluoronaphthalen-2-ol]
9 | > 10 µM | C#Cc1c(F)ccc2cc(O)cc(-c3nc4c5c(nc(OCC67CC(=C)CN6CC(=C)C7)nc5c3F)N(C(C)c3cccnc3N)C[C@H](C)O4)c12 (stereo partly drawn) [Example 4, 4-((8S)-10-(1-(2-aminopyridin-3-yl)ethyl)-2-((2,6-dimethylenetetrahydro-1H-pyrrolizin-7a(5H)-yl)methoxy)-4-fluoro-8-methyl-9,10-dihydro-8H-7-oxa-1,3,6,10-tetraazacyclohepta[de]naphthalen-5-yl)-5-ethynyl-6-fluoronaphthalen-2-ol]
10 | > 10 µM | C#Cc1c(F)ccc2cc(O)cc(-c3nc4c5c(nc(OCC6(CN7CCOCC7)CC6)nc5c3F)N(C(C)c3cccnc3N)C[C@H](C)O4)c12 (stereo partly drawn) [Example 5, 4-((8S)-10-(1-(2-aminopyridin-3-yl)ethyl)-4-fluoro-8-methyl-2-((1-(morpholinomethyl)cyclopropyl)methoxy)-9,10-dihydro-8H-7-oxa-1,3,6,10-tetraazacyclohepta[de]naphthalen-5-yl)-5-ethynyl-6-fluoronaphthalen-2-ol]
11 | > 10 µM | C#Cc1c(F)ccc2cc(O)cc(-c3nc4c5c(nc(OC[C@@]67CCCN6C[C@H](F)C7)nc5c3F)N([C@@H](C)c3cccnc3N)C[C@H](C)O4)c12 [Example 6b, 4-((S)-10-((S)-1-(2-aminopyridin-3-yl)ethyl)-4-fluoro-2-(((2R,7aS)-2-fluorotetrahydro-1H-pyrrolizin-7a(5H)-yl)methoxy)-8-methyl-9,10-dihydro-8H-7-oxa-1,3,6,10-tetraazacyclohepta[de]naphthalen-5-yl)-5-ethynyl-6-fluoronaphthalen-2-ol]
12 | > 10 µM | C#Cc1c(F)ccc2cc(O)cc(-c3nc4c5c(nc(OCC6CC(F)(F)CN6C)nc5c3F)N(C(C)c3cccnc3N)C[C@H](C)O4)c12 (stereo partly drawn) [Example 7, 4-((8S)-10-(1-(2-aminopyridin-3-yl)ethyl)-2-((4,4-difluoro-1-methylpyrrolidin-2-yl)methoxy)-4-fluoro-8-methyl-9,10-dihydro-8H-7-oxa-1,3,6,10-tetraazacyclohepta[de]naphthalen-5-yl)-5-ethynyl-6-fluoronaphthalen-2-ol]
13 | 1 to 10 µM | C#Cc1c(F)ccc2cc(O)cc(-c3nc4c5c(nc(OCC67COC(C6)C7)nc5c3F)N(C(C)c3cccnc3N)C[C@H](C)O4)c12 (stereo partly drawn) [Example 9, 4-((8S)-2-((2-oxabicyclo[2.1.1]hexan-4-yl)methoxy)-10-(1-(2-aminopyridin-3-yl)ethyl)-4-fluoro-8-methyl-9,10-dihydro-8H-7-oxa-1,3,6,10-tetraazacyclohepta[de]naphthalen-5-yl)-5-ethynyl-6-fluoronaphthalen-2-ol]
14 | 1 to 10 µM | CCc1c(F)ccc2cc(O)cc(-c3nc4c5c(nc(OC[C@@]67CCCN6C[C@H](F)C7)nc5c3F)N([C@@H](C)c3cccnc3N)CCO4)c12 [Example 14b, 4-(10-((S)-1-(2-aminopyridin-3-yl)ethyl)-4-fluoro-2-(((2R,7aS)-2-fluorotetrahydro-1H-pyrrolizin-7a(5H)-yl)methoxy)-9,10-dihydro-8H-7-oxa-1,3,6,10-tetraazacyclohepta[de]naphthalen-5-yl)-5-ethyl-6-fluoronaphthalen-2-ol]
15 | 1 to 10 µM | C#Cc1c(F)ccc2cc(O)cc(-c3nc4c5c(nc(OC[C@@H]6CC(F)(F)CN6C)nc5c3F)N(C(C)c3cccnc3N)CCO4)c12 (stereo partly drawn) [Example 15, 4-(10-(1-(2-aminopyridin-3-yl)ethyl)-2-(((S)-4,4-difluoro-1-methylpyrrolidin-2-yl)methoxy)-4-fluoro-9,10-dihydro-8H-7-oxa-1,3,6,10-tetraazacyclohepta[de]naphthalen-5-yl)-5-ethynyl-6-fluoronaphthalen-2-ol]
16 | 1 to 10 µM | C=C1CN2CC(=C)CC2(COc2nc3c4c(nc(-c5cc(O)cc6ccc(F)c(CC)c56)c(F)c4n2)OCCN3C(C)c2cccnc2N)C1 (centres unmarked) [Example 19, 4-(10-(1-(2-aminopyridin-3-yl)ethyl)-2-((2,6-dimethylenetetrahydro-1H-pyrrolizin-7a(5H)-yl)methoxy)-4-fluoro-9,10-dihydro-8H-7-oxa-1,3,6,10-tetraazacyclohepta[de]naphthalen-5-yl)-5-ethyl-6-fluoronaphthalen-2-ol]
17 | 1 to 10 µM | CCc1c(F)ccc2cc(O)cc(-c3nc4c5c(nc(OCC6(CN7CC[C@@H](F)C7)CC6)nc5c3F)N(C(C)c3cccnc3N)CCO4)c12 (stereo partly drawn) [Example 26, 4-(10-(1-(2-aminopyridin-3-yl)ethyl)-4-fluoro-2-((1-(((R)-3-fluoropyrrolidin-1-yl)methyl)cyclopropyl)methoxy)-9,10-dihydro-8H-7-oxa-1,3,6,10-tetraazacyclohepta[de]naphthalen-5-yl)-5-ethyl-6-fluoronaphthalen-2-ol]
